Results published in patent US20100292255A1, “Therapeutic Compounds and Their Use in Treating Diseases and Disorders” (Myriad Pharmaceuticals, Inc., priority 2007, published 2010).

Tested on: T1, purified human Hsp90
T1 construct: purified human Hsp90 (Stressgen, SPP-770)
Experiment: Hsp90 binding assay: displacement of BODIPY-labeled geldanamycin measured by fluorescence polarization
Conditions: 5 μM compound; BODIPY-GM 10 nM, Hsp90 30 nM, overnight at room temperature
Procedure, shortened: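 Purified human Hsp90 at 30 nM and 10 nM BODIPY-GM tracer were incubated overnight at room temperature with compound in 2% DMSO. The buffer was 20 mM HEPES-KOH pH 7.3, 50 mM KCl, 5 mM MgCl2, 20 mM Na2MoO4, 2 mM DTT. Background-subtracted mP values read at 485/530 nm were normalized to DMSO wells to give % inhibition.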

| GM displacement from purified Hsp90 measured by FP Inhibition by 5 μM compd. (%) | Compound |
| --- | --- |
| 9.0 | N#Cc1cc2c(cc1Sc1nc3c(N)ncn(CCC4CCN(C(=O)[C@@H](N)C(F)(F)F)CC4)c-3n1)OCO2 [compound 134, 6-[(6-amino-3-{2-[1-(3,3,3-trifluoroalanyl)piperidin-4-yl]ethyl}-3H-purin-8-yl)thio]-1,3-benzodioxole-5-carbonitrile] |
| 27.0 | CN(C)C(CCn1cnc(N)c2nc(Sc3cc4c(cc3Br)OCCO4)nc1-2)C1CC1 (centres unmarked) [compound 143, 8-[(7-bromo-2,3-dihydro-1,4-benzodioxin-6-yl)thio]-3-[3-cyclopropyl-3-(dimethylamino)propyl]-3H-purin-6-amine] |

Same assay, conditions: BODIPY-GM 10 nM, Hsp90 30 nM, overnight at room temperature; read-out: GM displacement from purified Hsp90 measured by FP IC 50

| Compound | IC50 [µM] |
| --- | --- |
| C[C@@H](NC(=O)OC(C)(C)C)C(=O)N1CCC(Cn2c(Sc3cc4c(cc3Br)OCCO4)nc3c(N)ncnc32)CC1 [compound 120, tert-Butyl {(1R)-2-[4-({6-amino-8-[(7-bromo-2,3-dihydro-1,4-benzodioxin-6-yl)thio]-9H-purin-9-yl}methyl)piperidin-1-yl]-1-methyl-2-oxoethyl}carbamate] | 0.4 |
| COc1cc(OC)c(Cl)c(Sc2nc3c(N)ncnc3n2CC2CCCN(C(=O)[C@H](C)N)C2)c1 (stereo partly drawn) [compound 123, 9-({1-[(2S)-2-Aminopropanoyl]piperidin-3-yl}methyl)-8-[(2-chloro-3,5-dimethoxyphenyl)thio]-9H-purin-6-amine] | 3.8 |
| C[C@@H](N)C(=O)N1CCC(Cn2c(Sc3cc4c(cc3Br)OCCO4)nc3c(N)ncnc32)CC1 [compound 124, 9-([1-[(2R)-2-Aminopropanoyl]piperidin-4-yl}methyl)-8-[(7-bromo-2,3-dihydro-1,4-benzodioxin-6-yl)thio]-9H-purin-6-amine] | 0.295 |
| C[C@H](N)C(=O)N1CCC(Cn2c(Sc3cc4c(cc3Br)OCCO4)nc3c(N)ncnc32)CC1 [compound 125, 9-({1-[(2S)-2-Aminopropanoyl]piperidin-4-yl}methyl)-8-[(7-bromo-2,3-dihydro-1,4-benzodioxin-6-yl)thio]-9H-purin-6-amine] | 0.5 |
| C[C@H](O)C(=O)N[C@H](C)C(=O)N1CCC(Cn2c(Sc3cc4c(cc3Br)OCCO4)nc3c(N)ncnc32)CC1 [compound 126, (2S)-N-{(1R)-2-[4-({6-Amino-8-[(7-bromo-2,3-dihydro-1,4-benzodioxin-6-yl)thio]-9H-purin-9-yl}methyl)piperidin-1-yl]-1-methyl-2-oxoethyl}-2-hydroxypropanamide] | > 5 |
| C[C@@H](NC(=O)[C@@H](C)OC(=O)C(C)(C)C)C(=O)N1CCC(Cn2c(Sc3cc4c(cc3Br)OCCO4)nc3c(N)ncnc32)CC1 [compound 127, (1R)-2-({(1R)-2-[4-({6-amino-8-[(7-bromo-2,3-dihydro-1,4-benzodioxin-6-yl)thio]-9H-purin-9-yl}methyl)piperidin-1-yl]-1-methyl-2-oxoethyl}amino)-1-methyl-2-oxoethyl pivalate] | > 5 |
| C[C@@H](NC(=O)C(C)(C)C)C(=O)N1CCC(Cn2c(Sc3cc4c(cc3Br)OCCO4)nc3c(N)ncnc32)CC1 [compound 128, N-{(1R)-2-[4-({6-amino-8-[(7-bromo-2,3-dihydro-1,4-benzodioxin-6-yl)thio]-9H-purin-9-yl}methyl)piperidin-1-yl]-1-methyl-2-oxoethyl}-2,2-dimethylpropanamide] | 0.44 |
| C[C@@H](NC(=O)CC(C)(C)C)C(=O)N1CCC(Cn2c(Sc3cc4c(cc3Br)OCCO4)nc3c(N)ncnc32)CC1 [compound 129, N-{(1R)-2-[4-({6-Amino-8-[(7-bromo-2,3-dihydro-1,4-benzodioxin-6-yl)thio]-9H-purin-9-yl}methyl)piperidin-1-yl]-1-methyl-2-oxoethyl}-3,3-dimethylbutanamide] | 3 |

The remaining lines, values ahead:

| IC50 [µM] | Compound |
| --- | --- |
| 1.1 | C[C@H](O)C(=O)N[C@@H](C)C(=O)N1CCC(Cn2c(Sc3cc4c(cc3Br)OCCO4)nc3c(N)ncnc32)CC1 [compound 130, (2S)—N-{(1S)-2-[4-({6-Amino-8-[(7-bromo-2,3-dihydro-1,4-benzodioxin-6-yl)thio]-9H-purin-9-yl}methyl)piperidin-1-yl]-1-methyl-2-oxoethyl}-2-hydroxypropanamide] |
| 1.9 | C[C@H](NC(=O)CO)C(=O)N1CCC(Cn2c(Sc3cc4c(cc3Br)OCCO4)nc3c(N)ncnc32)CC1 [compound 131, N-{(1S)-2-[4-({6-Amino-8-[(7-bromo-2,3-dihydro-1,4-benzodioxin-6-yl)thio]-9H-purin-9-yl}methyl)piperidin-1-yl]-1-methyl-2-oxoethyl}-2-hydroxyacetamide] |
| 0.505 | N#Cc1cc2c(cc1Sc1nc3c(N)ncnc3n1CCC1CCN(C(=O)[C@@H](N)C(F)(F)F)CC1)OCO2 [compound 133, 6-[(6-Amino-9-{2-[1-(3,3,3-trifluoroalanyl)piperidin-4-yl]ethyl}-9H-purin-8-yl)thio]-1,3-benzodioxole-5-carbonitrile] |
| 0.9 | N#Cc1cc2c(cc1Sc1nc3c(N)ncnc3n1CCC1CCN(C(=O)[C@@H]3CC(F)(F)CN3)CC1)OCO2 [compound 135, 6-[(6-Amino-9-{2-[1-(4,4-difluoro-L-prolyl)piperidin-4-yl]ethyl}-9H-purin-8-yl)thio]-1,3-benzodioxole-5-carbonitrile] |
| 0.11 | C[C@@H](N)C(=O)N1CCCC(CCCn2c(Sc3cc4c(cc3Br)OCO4)nc3c(N)ncnc32)C1 (stereo partly drawn) [compound 136, 9-(3-{1-[(2R)-2-Aminopropanoyl]piperidin-3-yl}propyl)-8-[(6-bromo-1,3-benzodioxol-5-yl)thio]-9H-purin-6-amine] |
| 0.24 | CC(=O)NC(CCn1c(Sc2cc3c(cc2Br)OCO3)nc2c(N)ncnc21)C1CC1 (centres unmarked) [compound 137, N-{3-[6-Amino-8-(6-bromo-benzo[1,3]dioxol-5-ylsulfanyl)-purin-9-yl]-1-cyclopropyl-propyl}-acetamide] |
| 0.24 | CC(=O)NC(CCn1c(Sc2cc3c(cc2Br)OCCO3)nc2c(N)ncnc21)C1CC1 (centres unmarked) [compound 139, N-(3-{6-Amino-8-[(7-bromo-2,3-dihydro-1,4-benzodioxin-6-yl)thio]-9H-purin-9-yl}-1-cyclopropylpropyl)acetamide] |
| 0.045 | CC(=O)N1CCC(CCn2c(Sc3cc4c(cc3Br)OCCO4)nc3c(N)ncnc32)CC1 [compound 140, 9-[2-(1-Acetylpiperidin-4-yl)ethyl]-8-[(7-bromo-2,3-dihydro-1,4-benzodioxin-6-yl)thio]-9H-purin-6-amine] |
| 0.17 | Nc1ncnc2c1nc(Sc1cc3c(cc1Br)OCO3)n2CCC(NC(=O)CO)C1CC1 (centres unmarked) [compound 141, N-(3-{6-Amino-8-[(6-bromo-1,3-benzodioxol-5-yl)thio]-9H-purin-9-yl}-1-cyclopropylpropyl)-2-hydroxyacetamide] |
| 0.205 | CN(C)C(CCn1c(Sc2cc3c(cc2Br)OCCO3)nc2c(N)ncnc21)C1CC1 (centres unmarked) [compound 142, 8-[(7-Bromo-2,3-dihydro-1,4-benzodioxin-6-yl)thio]-9-[3-cyclopropyl-3-(dimethylamino)propyl]-9H-purin-6-amine] |
